85 compounds from a melting point compilation (Tetko et al.; mined from patent text by program, amines drawn as free bases though some values may be those of a salt) can be followed below.

A value given as a limit tells only on which side of the number the result lay.

The melting point is the temperature of the solid-liquid transition. The compound `CC(=O)OC1CSC(Oc2ccccc2-c2c(C)noc2C)C(OC(C)=O)C1OC(C)=O` (stereo not given) yielded a melting point of 136 to 138 °C. The same measure for `COC(=O)c1cnn(OCCCC2OCCO2)c1`: 40 to 42 °C; for `NS(=O)(=O)c1csc2cc(O)cnc12`: 245 to 247 °C.

In the case of `CC(CCOc1ccccc1NS(C)(=O)=O)N1CCC(OC(c2ccccc2)c2ccccc2)CC1` (stereo not given), the melting point was in the range of 114 to 116 °C. Under `CN1CC(=O)N2c3ccccc3Cn3c(cc4ccccc43)C2C1=O` (stereo not given) stands 188 to 189 °C; under `CCCc1c(SCCCOc2ccc(C(C)O)c(OCCCC(=O)O)c2CCC)ccc(C(C)=O)c1O` (stereo not given), 85 to 86 °C; under `CN1C(=O)CN=C(c2ccccc2Cl)c2cc([N+](=O)[O-])ccc21`, 220 °C.

Turning to `CCOC(=O)C(=NOCCBr)c1csc(N)n1`, the melting point is 111 to 114 °C. The same measure for `Cn1cc(C(=O)Nc2ccccc2-c2cc(Cl)cc(Cl)c2)c(C(F)(F)F)n1`: 101 to 105 °C; for `O=C1OC2CCC1OC2` (stereo not given): 56 to 57 °C; for `Cn1c(=O)n(CCCC(NS(=O)(=O)c2ccc(-c3ccc(Cl)cc3)cc2)C(=O)O)c(=O)c2ccccc21` (stereo not given): 188 to 191 °C.

`COC(=O)c1sc2c(c1C)c1ccccc1n2Cc1ccccc1` gave a melting point of 132 to 134 °C. The same measure for `COc1ccc(-c2nc(NC(=O)c3ccccc3)sc2-c2ccnc(NC(=O)c3ccccc3)c2)cc1`: 230 to 233 °C; for `CC(=O)Nc1nc(CCc2ccc(CCN3CCN(C(=O)OC(C)(C)C)CC3)cc2)cs1`: 178 to 179 °C; for `Cc1ccc(-c2cn(C)cc(-c3cccc(C(F)(F)F)c3)c2=O)cc1Br`: 158 to 161 °C. `O=C(Oc1cccc(C(F)(F)F)c1)n1c2c(c(=O)n(C3CCCCO3)c1=O)CCC2` (stereo not given) came in with a melting point of 130 °C. `COC(=O)c1ccc(CNc2ccc3c(c2)C(C)(C)CCC3(C)C)cc1`: the melting point was 104 to 107 °C. Under `CN(CCOc1ccc(CC(Sc2ccccc2)C(=O)O)cc1)c1nc2ccccc2o1` (stereo not given) stands 144 to 147 °C. Under `CCC(C)(C)C(=O)Oc1cccc2ccc(OCCOc3ccc(C(=O)C(=O)OC)cc3)cc12` stands 119 to 120 °C; under `O=C(O)CCCCCCCCCC#CC#Cc1ccco1`, 62.6 to 63.5 °C.

`CCc1nc(C(=O)OC)c(OC)c(N)c1F` displayed a melting point of 110 to 113 °C.

Compound `Cc1nn(C)c2c1c1oc(=O)c(Sc3ccccc3)c(O)c1c(=O)n2Cc1ccc(F)cc1` showed a melting point of 159 to 160 °C. For the compound `CCCc1c(C(=O)C(C)C)c2ccc(C(=O)O)cc2n1Cc1ccccc1OC`, the melting point was 190 to 191 °C. The same measure for `COc1ccc(S(=O)(=O)N2c3ccc(Br)cc3-c3ccccc3C2C)cc1` (stereo not given): 192 to 194 °C. The same measure for `O=C(NCc1ccccc1F)[C@@H]1CCCN(c2cccc3c2C(=O)N(Cc2ccncc2)C3=O)C1`: 196 to 197 °C.

The compound `O=C(Nc1ccc(C(=O)N2CCCCc3sc(Cl)cc32)cc1)c1ccc(Cl)cc1Cl` registered a melting point of 187 to 189 °C.

`C1CNCCNCCNCCNCCNC1` yielded a melting point of 109 to 110 °C. Regarding `COc1ccc(CN(CC(=O)OC(C)(C)C)S(=O)(=O)c2ccc3c(Cl)cnc(Cl)c3c2)cc1`, the melting point lay within 117 to 118 °C. The compound `COc1ccc2c(c1)CN(CCc1ccc(NC(=O)c3cccc4c(=O)c5cccc(OC)c5[nH]c34)cc1)CC2` gave a melting point of 213 to 216 °C.

As to `CC(CCCc1ccc(F)cc1)c1cc(O)c2c(c1)OC(C)(C)c1ccncc1-2` (stereo not given), the melting point was in the range of 72 to 74 °C. The same measure for `FC(F)(F)c1cccc(NC2CCN(c3ccc(Cl)nn3)CC2)c1`: 118 °C. Compound `CCCCCCCn1c(C)c(CC(=O)O)c2cc(OCc3ccc4ccccc4n3)ccc21` came in with a melting point of 127 to 131 °C.

In turn, `CC12CCC(OC(=O)c3ccc(N)cc3)CC1=CCC1C2CCC2(C)C(=NO)CCC12` (stereo not given) registered a melting point of 165 to 168 °C.

Compound `COc1ccc(Nc2nc(Cl)nc(NCC3CCCCC3)n2)cc1F` came in with a melting point of 156 °C.

`CCCN1C(=O)c2cnc(-c3ccccc3)nc2N(C(=O)CCl)c2ccccc21` displayed a melting point of 139 to 140 °C. `C=C(C)C(=O)OCCCOc1cc(-n2nc3ccc(OC)cc3n2)c(O)c(C(C)(C)C)c1` returned a melting point of 114 to 116 °C.

The compound `CN1Cc2c(-c3nc(CCl)co3)ncn2-c2ccsc2C1=O` gave a melting point of 200 to 206 °C.

The compound `COCC#Cc1cc2c(O)c(C(=O)NCc3ccc(Cl)cc3)cnc2s1` returned a melting point of 215 to 218 °C. The same measure for `Cn1c(-c2ccc([N+](=O)[O-])cc2)cnc1[C@H](Cc1ccccn1)N(C=O)c1cc2cc(F)ccc2o1`: 207 to 208 °C; for `COc1ccccc1[C@@]1(O)[C@H](O)CC(c2ccccc2)(c2ccccc2)[C@@H]2CN(C(=O)Cc3cccc4ccccc34)C[C@@H]21` (racemic): 188 to 190 °C; for `CC(=O)NC(C(=O)NC1c2cc(C#N)ccc2OC(C)(C)C1O)c1ccccc1` (stereo not given): 133 to 145 °C. In the case of `c1ccc(-c2cc(-c3ccc4c(c3)OCO4)cc(OCCCCCc3nnn[nH]3)n2)cc1`, the melting point was 150 °C. Under `CCOC(=O)c1cn(-c2ccccc2)nc1OCc1ccc(OCc2nc(-c3ccccc3)oc2C)c(OC)c1` stands 160 to 161 °C; under `OCCN1c2ccccc2Oc2ccccc21`, 113 to 115 °C. Under `CC(C)c1nc(C(C)C)c(/C=C/C=O)c(-c2ccc(F)cc2)c1C=CC=O` stands 122 to 123 °C. `CCCCc1ccc(Nc2cc(C)nc3ccc(OC)cc23)cc1` gave a melting point of 200 to 201 °C. Under `O=CC1c2ccccc2CCc2ccccc21` stands 76 to 77 °C; under `O=[N+]([O-])c1ccc(Cn2ccnn2)cc1`, 112 to 113 °C. The same measure for `COc1ccc(S(=O)(=O)CC(O)(CS(=O)(=O)c2ccc(F)cc2)C(=O)NO)cc1` (stereo not given): 85 to 90 °C. With `CCN(CC)C(=O)Nc1ccc(S(=O)(=O)N2C(=O)C(NCCOCCO)(c3ccccc3Cl)c3cc(Cl)ccc32)cc1` (stereo not given), the melting point fell in the range of 114 to 118 °C. `O=C(COc1ccc([N+](=O)[O-])c(F)c1)NCc1ccccc1` showed a melting point of 128 to 130 °C.

In turn, `Cc1ccc(C#CCOCCn2cnc3c(N)nc4ccccc4c32)cc1C` yielded a melting point of 214 to 216 °C. As to `Cc1cc(Oc2cc(Cl)ccc2[N+](=O)[O-])n[nH]1`, the melting point was 87 to 90 °C. The same measure for `Cn1cnc(S(=O)(=O)Nc2cc(C(c3cc(F)ccc3F)S(=O)(=O)c3ccc(Cl)cc3)c(Cl)cn2)c1` (stereo not given): 294 to 296 °C; for `COCc1cnc2c(N)cc(C)cc2c1Cl`: 135 to 138 °C; for `O=C(O)Cn1c(=O)c(=O)[nH]c2cc([N+](=O)[O-])c(-n3ccc(CN4CCCCC4)c3)cc21`: greater than 250 °C.

`c1ccc(C2Nc3c4c(nc5ccccc35)CCCC4O2)cc1` (stereo not given) displayed a melting point of 225 to 235 °C.

The compound `O=C(Nc1ccccc1S(=O)(=O)N1CCCCC1)N[C@@H](Cc1ccc(Nc2nccc3cnccc23)cc1)C(=O)O` registered a melting point of 207 °C. The same measure for `CN(C)c1cc[nH]c(=O)c1[N+](=O)[O-]`: 208 to 209 °C; for `COc1ccccc1C(=O)c1cccc2c1ccn2C`: 74 °C; for `CCCc1nc(C(C)(C)O)c(C(=O)OCOC(=O)C(C)(C)C)n1Cc1ccc(-c2ccccc2C(=O)OC(C)(C)C)cc1`: 106 to 107 °C.

Regarding `N#Cc1cccc(C2=Nc3ccc(CCc4ccccc4)cc3NC(=O)C2)c1`, the melting point is 212 to 214 °C. The same measure for `O=C1CN(c2c(F)cc(N3C[C@H](CNC(=S)Nc4ccccn4)OC3=O)cc2F)CN1`: 194 to 196 °C; for `CN(C)c1nc2sc3c(NCc4cccnc4)ncnc3c2c2c1COC(C)(C)C2`: 250 to 252 °C. The same measure for `CCOC(=O)c1cnn2c(C(F)(F)F)cc(-c3ccc(C(F)(F)F)cc3)cc12`: 130 °C. Under `c1ccc2c(c1)N=C(N1CCNCC1)c1ccccc1S2` stands 66 to 69 °C; under `O=C(O)c1cc2c3cc(Br)c(Br)cc3n(Cc3ccccc3)c2s1`, 269 to 273 °C. `O=C1NCC[C@H](c2ccc(C(F)(F)F)cc2)[C@@H]1c1ccccc1` (relative stereo) displayed a melting point of 155 to 156 °C. Under `COc1ccc2c(c1)Sc1c(cc(OC)c(O)c1Br)N2C` stands 154 to 155 °C. With `CC(=O)OCc1nnc2n1-c1sc(Cl)cc1C(c1ccccc1Cl)=NC2`, the melting point lay within 191 to 193 °C. The same measure for `Clc1ncc(Cl)n2ccnc12`: 102 °C; for `Nc1ccc(Cl)cc1C(O)(C#CC1CC1)C(F)(F)F` (stereo not given): 141 to 143 °C.

The compound `O=C1CCCN1CCCN=c1sc2ccc(Cl)cc2s1` displayed a melting point of 97 to 97.5 °C.

For `N#CC(c1ccc(O)cc1)c1c(Cl)cc(-n2ncc(=O)[nH]c2=O)cc1Cl` (stereo not given), the melting point was determined as 210 °C. The same measure for `COc1cc2c(cc1OC)CCC(C(=O)O)=C2`: 191 to 194 °C; for `c1cncc(-c2ccnc(Nc3cccc(-n4ccnc4)c3)n2)c1`: 95 to 120 °C. Under `CC(C)C(=NO)c1ccc(Br)cc1` stands 126 to 136 °C; under `CCOC(=O)c1conc1-c1ccc(-c2ccccc2)cc1`, 81 to 82 °C; under `CCCCCCCN(CCCCCS(=O)(=O)c1nc(-c2ccccc2)c(-c2ccccc2)[nH]1)C(=O)Nc1ccc(F)cc1F`, 66 to 68 °C. Under `CN(C)CCCOc1ccnc2cc([N+](=O)[O-])ccc12` stands 146 to 149 °C; under `Cc1nc(N2CCN(Cc3ccc(F)cc3)C2=O)sc1C#N`, 136 to 139 °C; under `COC(=O)c1cccc(OCc2ccc3ccccc3c2)c1C`, 47 to 48 °C.

`CCCc1nn(-c2ccc(C(F)(F)F)cn2)cc1COc1ccc(CCC(=O)O)c(OC)c1`: the melting point was in the range of 153 to 154 °C. Under `COc1cc2c(cc1O)CCCC2=O` stands 117 to 119 °C; under `NN=C(N)Nc1c(Cl)cccc1Cl`, 281 °C.
